# Tested on: Caco-2 cells
# Assay: in vitro Caco-2 cell bioassay of iron bioavailability (ferritin formation)
# Assay type: cell-based
# Conditions: for effect on iron bioavailability: same testing conditions as avenanthramide 2c (FIG. 1)
# Experimental: FIG. 1 is a graph illustrating the results of in vitro tests that were performed in order to predict the effect that avenanthramide 2c, avenanthramide 2p, and avenanthramide 2f would have on iron bioabsorption in humans. Specifically, an in vitro Caco-2 cell bioassay was used that accurately predicts how a compound will influence iron bioabsorption in humans. In these cells, the intracellular iron storage protein known as ferritin forms in direct proportion to cell iron uptake.
# […] The ferric chloride solution is administered to the cells by itself (as a control) and along with the compound(s) being tested to assess their effect iron bioavailability, as measured by the amount of ferritin formed in the cells—a sensitive and accurate measurement of cell iron uptake. The test protocol measures the total weight of cell protein and the total weight of ferritin produced by the cells in order to generate a weight ratio of ferritin to cell protein (in units of ng ferritin formed per mg cell protein). The ratios from the test samples are compared against a control sample wherein only ferric chloride is administered to the cells. Test samples with higher ferritin values (ng ferritin/mg cell protein) compared to the control indicate improvement or enhancement of iron bioavailability, whereas test samples with ferritin values approximately equal to (or within the margin of error) or less than the control indicates no effect on iron bioavailability or inhibition of iron bioavailability, respectively.
SMILES,effect on iron bioavailability,"iron bioavailability (ferritin formation) compared with control (5 μM avenanthramide with 10 μM ferric chloride, control = ferric chloride only)",ferritin formation relative to control (20 μM avenanthramide with 10 μM ferric chloride),"ferritin formation, increase over the 5 μM sample (20 μM avenanthramide with 10 μM ferric chloride, relative to 5 μM sample)",ferritin value compared with control and lower concentrations (30 μM avenanthramide with 10 μM ferric chloride)
"O=C(/C=C/c1ccc(O)cc1)Nc1ccc(O)cc1C(=O)O [avenanthramide 2p, 5-hydroxy-2-[[(E)-3-(4-hydroxyphenyl)prop-2-enoyl]amino]benzoic acid, reference compound]",negligible or zero effect,–,–,–,–
"O=C(/C=C/c1ccc(O)c(O)c1)Nc1ccc(O)cc1C(=O)O [avenanthramide 2c, 2-[[(E)-3-(3,4-dihydroxyphenyl)prop-2-enoyl]amino]-5-hydroxybenzoic acid]",–,more than double the control value,more than 3.5 times the control value,more than 1.5 factor,"still above the values measured at 10 μM and 5 μM, and well above control"
"COc1cc(/C=C/C(=O)Nc2ccc(O)cc2C(=O)O)ccc1O [avenanthramide 2f, 5-hydroxy-2-[[(E)-3-(4-hydroxy-3-methoxyphenyl)prop-2-enoyl]amino]benzoic acid, reference compound]",negligible or zero effect,–,–,–,–

# — patent US20190350887A1, “INCREASING BIOAVAILABILITY OF IRON WITH AVENANTHRAMIDE 2c” (priority 2018, published 2019)
